{"source": "patent US20050089473A1", "about": "“Potassium channel mediated delivery of agents through the blood-brain barrier” (Cedars-Sinai Medical Center, priority 2003, published 2005)", "tested_on": "GBM xenograft", "assay": "In vivo BTB permeability (Ki by QAR) in GBM-xenograft nude rat model", "experimental": "All animal experiments were conducted in accordance with policies set by the Institutional Animal Care and Usage Committee and NIH guidelines. A rat syngeneic tumor model was prepared using female Wistar rats and a human-tumor xenograft model in athymic nude rats weighing 180-200 g were prepared for the BBB/BTB permeability studies. Although brain tumor blood vessel development is rapid in rats compared to humans, this variable should not affect the findings or conclusions because the study analyzes the response of blood vessels, regardless of how rapidly they developed, to vasomodulators. The optimum number of tumor cells and incubation period for in vivo tumor growth was determined in separate experiments. Rat glioma (RG2) cells (1×10^5) in 5 μl of medium with 1.2% methylcellulose were injected into the basal ganglia of Wistar rats, while nude rats were injected with glioblastoma multiforme (GBM) primary cells (5×10^5). The coordinates were 5-mm lateral to the bregma and 4.5 mm deep to the basal ganglia. […]\nThe unilateral transfer constant, Ki (μl/g/min), which is an initial rate for blood-to-brain transfer of a radiotracer, was calculated as described by Ohno et al. (Ohno, K., Pettigrew, K. O., and Rapsport, S. T. Lower limits of cerebrovascular permeability to […] in the conscious rat. Am. J. Physiol., 253: H299-H307, 1978). […]", "note": "Counter-ions that a name gives are not always drawn.", "data": [{"smiles": "Nc1cc(N2CCCCC2)nc(N)[n+]1OS(=O)(=O)[O-]", "note": "[MS, minoxidil sulfate]", "values": [{"measurement": "BTB permeability (Ki)", "setting": "GBM xenograft nude rat, i.c. MS 30 μg/kg/min, glibenclamide 5 μg/kg/min for 15 min", "result": "52 ± 8", "unit": "µL/g/min"}, {"measurement": "BBB permeability in normal brain surrounding tumor or normal contralateral brain", "setting": "i.c. infusion", "result": "did not significantly affect BBB permeability"}]}]}
